Reference: patent publication US10294202B2, “Pyrrolidinones as herbicides” (FMC Corporation, priority 2013, dated 2019)

Experiments:
[1] = test system: pigweed; test: Test A pre-/postemergence herbicide test; assay type: in vivo, Amaranthus retroflexus; conditions: for Pigweed plant response rating: Preemergence, visual rating on 0 to 100 scale (0 no effect, 100 complete control)
Procedure, shortened: (§1)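 Visual 0–100 ratings (100 = complete control) made about 10 days after treatment, greenhouse-held plants compared with untreated controls. Treatments: postemergence sprays on one- to two-leaf plants (2–10 cm tall) and preemergence directed soil sprays after planting in loam–sand, chemicals formulated in non-phytotoxic solvent containing surfactant.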

[2] = test system: ragweed; test: Test A pre-/postemergence herbicide test; assay type: in vivo, Ambrosia elatior; conditions: for Plant response rating, Ragweed: 0 to 100 scale
Procedure, shortened: as §1

[3] = test system: barnyardgrass; test: Test A pre-/postemergence herbicide test; assay type: in vivo, Echinochloa crus-galli; conditions: for Barnyardgrass plant response rating: Preemergence, visual rating on 0 to 100 scale (0 no effect, 100 complete control)
Procedure, shortened: as §1

[4] = test system: ducksalad; test: Test B flooded paddy test; assay type: in vivo, Heteranthera limosa; conditions: Flood, scale of 0 to 100 where 0 is no effect and 100 is complete control
Procedure, shortened: (§2)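 Scoring: visual, compared with untreated controls, 0 = no effect through 100 = complete control, taken 13 to 15 days after treatment in the greenhouse. Compounds had been added to paddy water over soil flooded 3 cm deep at the plants' 2-leaf stage.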

[5] = test system: barnyardgrass; test: Test B flooded paddy test; assay type: in vivo, Echinochloa crus-galli; conditions: Flood, scale of 0 to 100 where 0 is no effect and 100 is complete control
Procedure, shortened: as §2

[6] = test system: kochia; test: Test A pre-/postemergence herbicide test; assay type: in vivo, Kochia scoparia; conditions: for Plant response rating, Kochia: 0 to 100 scale
Procedure, shortened: as §1

[7] = test system: wheat; test: Test A pre-/postemergence herbicide test; assay type: in vivo, Triticum aestivum; conditions: for Wheat plant response rating: Preemergence, visual rating on 0 to 100 scale (0 no effect, 100 complete control)
Procedure, shortened: as §1

[8] = test system: rice; test: Test B flooded paddy test; assay type: in vivo, Oryza sativa; conditions: Flood, scale of 0 to 100 where 0 is no effect and 100 is complete control
Procedure, shortened: as §2

[9] = test system: corn; test: Test A pre-/postemergence herbicide test; assay type: in vivo, Zea mays; conditions: for Corn plant response rating: Preemergence, visual rating on 0 to 100 scale (0 no effect, 100 complete control)
Procedure, shortened: as §1

[10] = test system: ryegrass, Italian; test: Test A pre-/postemergence herbicide test; assay type: in vivo, Lolium multiflorum; conditions: for Plant response rating, Ryegrass, Italian: 0 to 100 scale
Procedure, shortened: as §1

[11] = test system: giant foxtail; test: Test A pre-/postemergence herbicide test; assay type: in vivo, Setaria faberii; conditions: for Foxtail, Giant plant response rating: Preemergence, visual rating on 0 to 100 scale (0 no effect, 100 complete control)
Procedure, shortened: as §1

[12] = test system: blackgrass; test: Test A postemergence herbicide test; assay type: in vivo, Alopecurus myosuroides
Procedure, shortened: (§3)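 Blackgrass and galium grown in pots of loam soil–sand blend, treated postemergence at 2–10 cm height, one- to two-leaf stage. Plants kept in greenhouse ~10 days, then visually rated for injury against untreated controls on a 0–100 scale (0 no effect, 100 complete control).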

[13] = test system: sedge, umbrella; test: Test B flooded paddy test; assay type: in vivo, Cyperus difformis; conditions: Flood, scale of 0 to 100 where 0 is no effect and 100 is complete control
Procedure, shortened: as §2

[14] = test system: galium; test: Test A postemergence herbicide test; assay type: in vivo, Galium aparine
Procedure, shortened: as §3

[15] = test system: velvetleaf; test: Test A pre-/postemergence herbicide test; assay type: in vivo, Abutilon theophrasti; conditions: for Velvetleaf plant response rating: Preemergence, visual rating on 0 to 100 scale (0 no effect, 100 complete control)
Procedure, shortened: as §1

[16] = test system: morningglory; test: Test A pre-/postemergence herbicide test; assay type: in vivo, Ipomoea spp.; conditions: for Morningglory plant response rating: Preemergence, visual rating on 0 to 100 scale (0 no effect, 100 complete control)
Procedure, shortened: as §1

[17] = test system: crabgrass, large; test: Test A pre-/postemergence herbicide test; assay type: in vivo, Digitaria sanguinalis; conditions: for Crabgrass, Large plant response rating: Preemergence, visual rating on 0 to 100 scale (0 no effect, 100 complete control)
Procedure, shortened: as §1

[18] = 125 g ai/ha, visual rating, 0 to 100 scale, 0 no effect, 100 complete control, approximately 10 days, preemergence
[19] = Postemergence, 125 g ai/ha, 0 to 100 scale, 0 no effect, 100 complete control
[20] = preemergence, 500 g ai/ha, 0 to 100 scale
[21] = 125 g ai/ha, visual rating, 0 no effect, 100 complete control, approximately 10 days, preemergence
[22] = Postemergence, 125 g ai/ha, 0 no effect, 100 complete control
[23] = Postemergence, 500 g ai/ha, 0 to 100 scale (0 no effect, 100 complete control)
[24] = preemergence, 500 g ai/ha, 0 to 100 scale (0 no effect, 100 complete control)
[25] = 125 g ai/ha, 0 to 100 scale, 0 no effect, 100 complete control

## O=C1NCC(c2cccc(OC(F)(F)C(F)F)c2)C1C(=O)Nc1cccc(F)c1F (racemic) [Compound 123]
[1]; [18]
  Plant response rating, Pigweed: 70
[1]; [19]
  Plant response rating, Pigweed: 80
[1]; Postemergence, 500 g ai/ha
  Pigweed plant response rating (0 to 100 scale, 0 is no effect, 100 is complete control): 90
[1]; [20]
  Plant response rating, Pigweed: 80
[2]; [21]
  Plant response rating, Ragweed: 70
[2]; [22]
  Plant response rating, Ragweed: 50
[2]; Postemergence, 500 g ai/ha
  Ragweed plant response rating (0 to 100 scale, 0 is no effect, 100 is complete control): 70
[2]; preemergence, 500 g ai/ha
  Plant response rating, Ragweed: 80
[3]; [18]
  Plant response rating, Barnyardgrass: 80
[3]; [19]
  Plant response rating, Barnyardgrass: 70
[3]; [23]
  Plant response rating, Barnyardgrass: 80
[3]; [24]
  Plant response rating, Barnyardgrass: 90
[4]; 500 g ai/ha
  Plant response rating, Ducksalad: 100
[5]; 500 g ai/ha
  Plant response rating, Barnyardgrass: 60
[6]; [21]
  Plant response rating, Kochia: 80
[6]; [22]
  Plant response rating, Kochia: 60
[6]; Postemergence, 500 g ai/ha
  Kochia plant response rating (0 to 100 scale, 0 is no effect, 100 is complete control): 70
[6]; preemergence, 500 g ai/ha
  Plant response rating, Kochia: 90
[7]; [19]
  Plant response rating, Wheat: 50
[7]; Postemergence, 500 g ai/ha
  Wheat plant response rating (0 to 100 scale, 0 is no effect, 100 is complete control): 60
[8]; 500 g ai/ha
  Plant response rating, Rice: 0
[9]; [19]
  Plant response rating, Corn: 50
[9]; [23]
  Plant response rating, Corn: 80
[10]; [21]
  Plant response rating, Ryegrass, Italian: 40
[10]; [22]
  Plant response rating, Ryegrass, Italian: 40
[10]; Postemergence, 500 g ai/ha
  Ryegrass, Italian plant response rating (0 to 100 scale, 0 is no effect, 100 is complete control): 50
[10]; preemergence, 500 g ai/ha
  Plant response rating, Ryegrass, Italian: 60
[11]; [18]
  Plant response rating, Foxtail, Giant: 90
[11]; [19]
  Plant response rating, Foxtail, Giant: 80
[11]; Postemergence, 500 g ai/ha
  Foxtail, Giant plant response rating (0 to 100 scale, 0 is no effect, 100 is complete control): 90
[11]; [20]
  Plant response rating, Foxtail, Giant: 90
[12]; [25]
  Plant response rating, Blackgrass: 60
[12]; 500 g ai/ha, 0 to 100 scale (0 no effect, 100 complete control)
  Plant response rating, Blackgrass: 70
[13]; 500 g ai/ha
  Plant response rating, Sedge, Umbrella: 0
[14]; [25]
  Plant response rating, Galium: 60
[14]; 500 g ai/ha
  Galium plant response rating (0 to 100 scale, 0 is no effect, 100 is complete control): 70

## CC1(C(=O)Nc2cccc(F)c2F)C(=O)NCC1c1ccc(F)c(Cl)c1 (stereo not drawn) [Compound 61]
[1]; [19]
  Plant response rating, Pigweed: 0
[1]; [23]
  Plant response rating, Pigweed: 0
[1]; 125 g ai/ha
  Pigweed plant response rating: 0
[1]; [20]
  Plant response rating, Pigweed: 0
[3]; [19]
  Plant response rating, Barnyardgrass: 0
[3]; [23]
  Plant response rating, Barnyardgrass: 20
[3]; 125 g ai/ha
  Barnyardgrass plant response rating: 0
[3]; [24]
  Plant response rating, Barnyardgrass: 0
[4]; 250 g ai/ha
  Plant response rating, Ducksalad: 0
[5]; 250 g ai/ha
  Plant response rating, Barnyardgrass: 0
[7]; [19]
  Plant response rating, Wheat: 0
[7]; [23]
  Plant response rating, Wheat: 0
[7]; 125 g ai/ha
  Wheat plant response rating: 0
[7]; [20]
  Plant response rating, Wheat: 0
[8]; 250 g ai/ha
  Plant response rating, Rice: 0
[9]; [19]
  Plant response rating, Corn: 0
[9]; [23]
  Plant response rating, Corn: 0
[9]; 125 g ai/ha
  Corn plant response rating: 0
[9]; [20]
  Plant response rating, Corn: 0
[15]; [19]
  Plant response rating, Velvetleaf: 0
[15]; [23]
  Plant response rating, Velvetleaf: 0
[15]; 125 g ai/ha
  Velvetleaf plant response rating: 0
[15]; [20]
  Plant response rating, Velvetleaf: 0
[16]; [19]
  Plant response rating, Morningglory: 0
[16]; [23]
  Plant response rating, Morningglory: 0
[16]; 125 g ai/ha
  Morningglory plant response rating: 0
[16]; [20]
  Plant response rating, Morningglory: 0
[11]; [19]
  Plant response rating, Foxtail, Giant: 0
[11]; [23]
  Plant response rating, Foxtail, Giant: 30
[11]; 125 g ai/ha
  Foxtail, Giant plant response rating: 0
[11]; [20]
  Plant response rating, Foxtail, Giant: 0
[17]; [19]
  Plant response rating, Crabgrass, Large: 0
[17]; [23]
  Plant response rating, Crabgrass, Large: 70
[17]; 125 g ai/ha
  Crabgrass, Large plant response rating: 0
[17]; [20]
  Plant response rating, Crabgrass, Large: 80
[13]; 250 g ai/ha
  Plant response rating, Sedge, Umbrella: 30

## O=C1NCC(c2ccc3c(c2)OC(F)(F)O3)C1C(=O)Nc1ccccc1F (stereo not drawn) [Compound 63]
[1]; [19]
  Plant response rating, Pigweed: 0
[1]; [23]
  Plant response rating, Pigweed: 0
[1]; 125 g ai/ha
  Pigweed plant response rating: 0
[1]; [20]
  Plant response rating, Pigweed: 0
[3]; [19]
  Plant response rating, Barnyardgrass: 60
[3]; [23]
  Plant response rating, Barnyardgrass: 80
[3]; 125 g ai/ha
  Barnyardgrass plant response rating: 50
[3]; [24]
  Plant response rating, Barnyardgrass: 80
[4]; 250 g ai/ha
  Plant response rating, Ducksalad: 60
[5]; 250 g ai/ha
  Plant response rating, Barnyardgrass: 20
[7]; [19]
  Plant response rating, Wheat: 0
[7]; [23]
  Plant response rating, Wheat: 30
[7]; 125 g ai/ha
  Wheat plant response rating: 0
[7]; [20]
  Plant response rating, Wheat: 0
[8]; 250 g ai/ha
  Plant response rating, Rice: 0
[9]; [19]
  Plant response rating, Corn: 0
[9]; [23]
  Plant response rating, Corn: 50
[9]; 125 g ai/ha
  Corn plant response rating: 0
[9]; [20]
  Plant response rating, Corn: 0
[15]; [19]
  Plant response rating, Velvetleaf: 0
[15]; [23]
  Plant response rating, Velvetleaf: 0
[15]; 125 g ai/ha
  Velvetleaf plant response rating: 0
[15]; [20]
  Plant response rating, Velvetleaf: 0
[16]; [19]
  Plant response rating, Morningglory: 0
[16]; [23]
  Plant response rating, Morningglory: 0
[16]; 125 g ai/ha
  Morningglory plant response rating: 0
[16]; [20]
  Plant response rating, Morningglory: 0
[11]; [19]
  Plant response rating, Foxtail, Giant: 70
[11]; [23]
  Plant response rating, Foxtail, Giant: 90
[11]; 125 g ai/ha
  Foxtail, Giant plant response rating: 70
[11]; [20]
  Plant response rating, Foxtail, Giant: 90
[17]; [19]
  Plant response rating, Crabgrass, Large: 80
[17]; [23]
  Plant response rating, Crabgrass, Large: 90
[17]; 125 g ai/ha
  Crabgrass, Large plant response rating: 90
[17]; [20]
  Plant response rating, Crabgrass, Large: 90
[13]; 250 g ai/ha
  Plant response rating, Sedge, Umbrella: 0
